Test results taken from patent publication US20120197004A1, “NOVEL ANTI-MICROBIAL PEPTIDOMIMETIC COMPOUNDS AND METHODS TO CALCULATE ANTI-MICROBIAL ACTIVITY” (priority 2006, published 2012).
In brackets after ≈: the same amount, converted by molar mass. Read-outs that look alike come from different tables or passages of the source. *1 amine or outer side, *2 acyl side, *3 side chain or, on linkers, in order; H or OH if unused. Where a SMILES comes first, the peptide text is derived from it. [ ]: non-standard residue; d: D form. ξ: configuration not given here. Oic = O=C(O)[C@@H]1C[C@@H]2CCCC[C@@H]2N1; Ethylenediamine = C(CN[*:2])N[*:1]; Tic = O=C(O)[C@@H]1Cc2ccccc2CN1; ξTic = O=C(O)C1Cc2ccccc2CN1; ξOic = O=C(O)C1CC2CCCCC2N1; Ahx = NCCCCCC(=O)O; GABA = NCCCC(=O)O

Key:
[1] = test system: Bacillus subtillis (ATCC 43223); settings: for p(MIC) Bacillus Subtillis: -log(MIC)
[2] = test system: Salmonella typhimurium (ATCC 13311); settings: for p(MIC) Salmonella typhimurium: -log(MIC)
[3] = test system: Staphylococcus aureus Methicillin/Gentamicin/Tetracycline Resistant (ATCC 33592); settings: for p(MIC) Staphylococcus aureus ME/GM/TC resistant: -log(MIC); for MIC Staphylococcus aureus ME/GM/TC resistant: Minimal Inhibitory Concentration, tested at 100-0.1 in 1% DMSO; for Minimum Inhibitory Concentration Staphylococcus aureus ME/GM/TC resistant: in vitro MIC, tested at 100, 30, 10, 3, 1, 0.3 and 0.1 μM in 1% DMSO; for Actual Bioactivity: p(MIC) used in Staphylococcus aureus QSAR model
[4] = test system: Mycobacterium ranae (ATCC 110)
in vitro [5] = settings: dog, microsomes, pH 7.4
in vitro [6] = settings: monkey, microsomes, pH 7.4
in vitro [7] = settings: mouse, microsomes, pH 7.4
in vitro [8] = settings: rat, microsomes, pH 7.4
in vitro [9] = settings: human, microsomes, pH 7.4

SMILES | p(MIC) Bacillus Subtillis [1] | MIC Bacillus Subtillis ([1]; ATCC 43223) | p(MIC) Salmonella typhimurium [2] | MIC Salmonella typhimurium ([2]; ATCC 13311) | p(MIC) Staphylococcus aureus ME/GM/TC resistant [3] | MIC Staphylococcus aureus ME/GM/TC resistant [3] | Minimum Inhibitory Concentration Staphylococcus aureus ME/GM/TC resistant [3] | Actual Bioactivity [3] | Actual Bioactivity [4] | Minimum Inhibitory Concentration Mycobacterium ranae [4] | MIC Mycobacterium ranae ([4]; ATCC 110) | % hemolysis 100/25 μM (first value) (red blood cells) | % hemolysis 100/25 μM (second value) (red blood cells) | remaining at 0.25 h, 1 μM (in vitro [6]) | remaining at 0.5 h, 1 μM (in vitro [6]) | remaining at 1 h, 1 μM (in vitro [6]) | remaining at 0.25 h, 1 μM (in vitro [7]) | remaining at 0.5 h, 1 μM (in vitro [7]) | remaining at 1 h, 1 μM (in vitro [7]) | Minimum Inhibitory Concentration Mycobacterium ranae ([4]; ATCC 110) | also measured
CC(=O)N[C@@H](Cc1ccccc1)C(=O)N1Cc2ccccc2C[C@H]1C(=O)N1[C@H](C(=O)N[C@@H](CCCCN)C(=O)N2Cc3ccccc3C[C@H]2C(=O)N2[C@H](C(=O)N[C@@H](Cc3ccccc3)C(=O)N3Cc4ccccc4C[C@H]3C(=O)N3[C@H](C(=O)N[C@@H](CCCCN)C(=O)N4Cc5ccccc5C[C@H]4C(=O)N[C@@H](CCCCN)C(=O)N[C@@H](CCCCN)C(=O)N[C@@H](CCCCN)C(=O)N[C@@H](CCCCN)C(=O)N[C@@H](CCCCN)C(=O)N[C@@H](CCCCN)C(N)=O)C[C@@H]4CCCC[C@@H]43)C[C@@H]3CCCC[C@@H]32)C[C@@H]2CCCC[C@@H]21 [FKAB-1Gc1, Ac-F-Tic-Oic-K-Tic-Oic-F-Tic-Oic-K-Tic-KKKKKK-CONH2] (Ac-F[Tic][Oic]K[Tic][Oic]F[Tic][Oic]K[Tic]KKKKKK-NH2) | 6.00 | 1.00 µM (≈ 2.47 µg/mL) | 5.00 | 10 µM (≈ 24.7 µg/mL) | 5.52 | 3.00 µM (≈ 7.41 µg/mL) | 3 µM | 5.520 | 5.520 | 3 µM | 3.00 µM (≈ 7.41 µg/mL) | 41.3%/ | 33.5% | – | – | – | – | – | – | – | SA Activity ([3]; Staphylococcus aureus (SA), Table 30): 3; MR Activity [4]: 3 µM
CC(=O)N[C@@H](Cc1ccccc1)C(=O)N1Cc2ccccc2CC1C(=O)N1C(C(=O)N[C@@H](CCCCN)C(=O)N2Cc3ccccc3CC2C(=O)N2C(C(=O)N[C@@H](Cc3ccccc3)C(=O)N3Cc4ccccc4CC3C(=O)N3C(C(=O)N[C@@H](CCCCN)C(=O)N4Cc5ccccc5CC4C(=O)N[C@@H](CCCCN)C(=O)N[C@@H](CCCCN)C(=O)N[C@@H](CCCCN)C(=O)N[C@@H](CCCCN)C(N)=O)CC4CCCCC43)CC3CCCCC32)CC2CCCCC21 (stereo partly drawn) [FKAB-1Gc, Ac-F-Tic-Oic-K-Tic-Oic-F-Tic-Oic-K-Tic-KKKK-CONH2] (Ac-F[ξTic][ξOic]K[ξTic][ξOic]F[ξTic][ξOic]K[ξTic]KKKK-NH2) | – | 1.00 µM (≈ 2.21 µg/mL) | – | 10 µM (≈ 22.1 µg/mL) | – | 3.00 µM (≈ 6.64 µg/mL) | 3 µM | – | – | – | 30.00 µM (≈ 66.4 µg/mL) | 86.8%/ | 50% | 17% | 24% | 75% | 86% | 10% | 7% | 30 µM | remaining at 0.5 h, 1 μM (in vitro [5]): 14%; remaining at 1 h, 1 μM (in vitro [5]): 46%; remaining at 0.25 h, 1 μM (in vitro [8]): 73%; remaining at 0.5 h, 1 μM (in vitro [8]): 80%; remaining at 1 h, 1 μM (in vitro [8]): 107%
CC(=O)NCCCCCC(=O)N[C@@H](Cc1ccccc1)C(=O)N1Cc2ccccc2C[C@H]1C(=O)N1[C@H](C(=O)NCCCCCC(=O)N[C@@H](CCCCN)C(=O)N2Cc3ccccc3C[C@H]2C(=O)N2[C@H](C(=O)NCCCCCC(=O)N[C@@H](Cc3ccccc3)C(=O)N3Cc4ccccc4C[C@H]3C(=O)N3[C@H](C(=O)NCCCCCC(=O)N[C@@H](CCCCN)C(=O)N4Cc5ccccc5C[C@H]4C(=O)N[C@@H](CCCCN)C(=O)N[C@@H](CCCCN)C(=O)N[C@@H](CCCCN)C(=O)N[C@@H](CCCCN)C(N)=O)C[C@@H]4CCCC[C@@H]43)C[C@@H]3CCCC[C@@H]32)C[C@@H]2CCCC[C@@H]21 [FKAB-1Gd2, Ac-Ahx-F-Tic-Oic-Ahx-K-Tic-Oic-Ahx-F-Tic-Oic-Ahx-K-Tic-KKKK-CONH2] (Ac-[Ahx]F[Tic][Oic][Ahx]K[Tic][Oic][Ahx]F[Tic][Oic][Ahx]K[Tic]KKKK-NH2) | 6.00 | 1.00 µM (≈ 2.67 µg/mL) | 5.00 | 10 µM (≈ 26.7 µg/mL) | 5.00 | 10.00 µM (≈ 26.7 µg/mL) | 10 µM | 5.000 | 5.520 | – | 3.00 µM (≈ 8 µg/mL) | 44.7%/ | 26.6% | – | – | – | – | – | – | 3 µM | –
CC(=O)NCCCC(=O)N[C@@H](Cc1ccccc1)C(=O)N1Cc2ccccc2C[C@H]1C(=O)N1[C@H](C(=O)NCCCC(=O)N[C@@H](CCCCN)C(=O)N2Cc3ccccc3C[C@H]2C(=O)N2[C@H](C(=O)NCCCC(=O)N[C@@H](Cc3ccccc3)C(=O)N3Cc4ccccc4C[C@H]3C(=O)N3[C@H](C(=O)NCCCC(=O)N[C@@H](CCCCN)C(=O)N4Cc5ccccc5C[C@H]4C(=O)N[C@@H](CCCCN)C(=O)N[C@@H](CCCCN)C(=O)N[C@@H](CCCCN)C(=O)N[C@@H](CCCCN)C(=O)N[C@@H](CCCCN)C(N)=O)C[C@@H]4CCCC[C@@H]43)C[C@@H]3CCCC[C@@H]32)C[C@@H]2CCCC[C@@H]21 [FKAB-1Gd3, Ac-Gaba-F-Tic-Oic-Gaba-K-Tic-Oic-Gaba-F-Tic-Oic-Gaba-K-Tic-KKKKK-CONH2] (Ac-[GABA]F[Tic][Oic][GABA]K[Tic][Oic][GABA]F[Tic][Oic][GABA]K[Tic]KKKKK-NH2) | – | 1.00 µM (≈ 2.68 µg/mL) | – | 10 µM (≈ 26.8 µg/mL) | 4.52 | – | – | 4.520 | 5.520 | 3 µM | 3.00 µM (≈ 8.04 µg/mL) | 29.7%/ | 10.5% | – | – | – | – | – | – | – | Minimum Inhibitory Concentration Bacillus subtillis ([1]; ATCC 43223): 1 µM; Minimum Inhibitory Concentration Salmonella typhimurium ([2]; ATCC 13311): 10 µM; selectivity for Mycobacterium ranae over Salmonella typhimurium ([4]; in vitro): 3 fold
CC(=O)NCC(=O)N[C@@H](Cc1ccccc1)C(=O)N1[C@H](C(=O)NCC(=O)N[C@@H](CCCCN)C(=O)N2[C@H](C(=O)NCC(=O)N[C@@H](Cc3ccccc3)C(=O)N3[C@H](C(=O)NCC(=O)N[C@@H](CCCCN)C(=O)N[C@@H](CCCCN)C(=O)N[C@@H](CCCCN)C(=O)N[C@@H](CCCCN)C(=O)N[C@@H](CCCCN)C(N)=O)C[C@@H]4CCCC[C@@H]43)C[C@@H]3CCCC[C@@H]32)C[C@@H]2CCCC[C@@H]21 [FKAB-1Gf, Ac-GF-Oic-GK-Oic-GF-Oic-GKKKKK-CONH2] (Ac-GF[Oic]GK[Oic]GF[Oic]GKKKKK-NH2) | 5.52 | 3.00 µM (≈ 5.41 µg/mL) | 4.00 | 100 µM (≈ 180 µg/mL) | 0.00 | – | – | 0.000 | 4.000 | 100 μM/180 μg/mL | 100.00 µM (≈ 180 µg/mL) | 5.9%/ | 3.2% | – | – | – | – | – | – | – | Minimum Inhibitory Concentration Bacillus subtillis ([1]; in vitro MIC): 5.4 µg/mL; Minimum Inhibitory Concentration Salmonella typhimurium ([2]; in vitro MIC): 180 µg/mL; Minimum Inhibitory Concentration Salmonella typhimurium ([2]; in vitro MIC, tested at 100, 30, 10, 3, 1, 0.3 and 0.1 μM in 1% DMSO): 100 µM; % hemolysis 100/25 μM (first value) (red blood cells; 100 μM): 5.9%
CC(=O)NCC(=O)N[C@@H](Cc1ccccc1)C(=O)N1Cc2ccccc2C[C@H]1C(=O)N1[C@H](C(=O)NCC(=O)N[C@@H](CCCCN)C(=O)N2Cc3ccccc3C[C@H]2C(=O)N2[C@H](C(=O)NCC(=O)N[C@@H](Cc3ccccc3)C(=O)N3Cc4ccccc4C[C@H]3C(=O)N3[C@H](C(=O)NCC(=O)N[C@@H](CCCCN)C(=O)N4Cc5ccccc5C[C@H]4C(=O)N[C@@H](CCCCN)C(=O)N[C@@H](CCCCN)C(=O)N[C@@H](CCCCN)C(=O)N[C@@H](CCCCN)C(=O)NCCN)C[C@@H]4CCCC[C@@H]43)C[C@@H]3CCCC[C@@H]32)C[C@@H]2CCCC[C@@H]21 [FKAB-1H, Ac-GF-Tic-Oic-GK-Tic-Oic-GF-Tic-Oic-GK-Tic-KKKK-CONH—CH2—CH2—NH2] (Ac-GF[Tic][Oic]GK[Tic][Oic]GF[Tic][Oic]GK[Tic]KKKK-Ethylenediamine) | 6.00 | 1.00 µM (≈ 2.48 µg/mL) | 5.00 | 10 µM (≈ 24.8 µg/mL) | 5.52 | 3.00 µM (≈ 7.45 µg/mL) | 3 µM | 5.520 | 5.000 | – | 10.00 µM (≈ 24.8 µg/mL) | – | – | 0% | 0% | 0% | 0% | 62% | 73% | 10 µM | remaining at 0.25 h, 1 μM (in vitro [9]): 34%
CC(C)NCC(O)COc1cccc2ccccc12 (centres unmarked) [Propranolol, propranolol, reference compound] | – | – | – | – | – | – | – | – | – | – | – | – | – | 34% | 9% | 0.5% | 9% | 9% | 4% | – | remaining at 0.25 h, 1 μM (in vitro [5]): 76%; remaining at 0.5 h, 1 μM (in vitro [5]): 51%; remaining at 1 h, 1 μM (in vitro [5]): 24%; remaining at 0.25 h, 1 μM (in vitro [9]): 97%; remaining at 0.5 h, 1 μM (in vitro [9]): 86%; remaining at 1 h, 1 μM (in vitro [9]): 72%; remaining at 0.25 h, 1 μM (in vitro [8]): 0.1%; remaining at 0.5 h, 1 μM (in vitro [8]): 0.1%; remaining at 1 h, 1 μM (in vitro [8]): 0.1%
